{"source": "patent US8987212B2", "about": "“Oleanoyl peptide composition and method of treating skin aging” (priority 2007, dated 2015)", "key": {"[1]": {"tested_on": "B16F1 mouse melanoma cells", "assay": "Melanin inhibition in α-MSH induced melanoma cells", "format": "cell-based", "conditions": "α-MSH induced, 9 days; for IC50: Mus musculus, B16-F1, 216 h, read-out: Melanin inhibition IC50 (μg/ml), Individual active", "description": "B16F1 mouse melanoma cells were seeded in a 6 well microtiter plate at a seeding density of 5000 cells per well in 2 ml DMEM medium per well. After 24 hours of incubation in a CO2 incubator, melanin production is induced by 0.1 nM ∝-MSH by replacing the medium with medium containing ∝-MSH. The cells were then treated with varying concentrations of sample (composition containing oleanoyl peptide and stilbenes/licorice extract/THC) over a period of 9 days with renewal of ∝-MSH containing medium and sample at regular intervals of 3 days. Control wells were maintained without sample treatment and only with the vehicle used for sample preparation. After the incubation period, the medium was removed and the cells were scraped and washed in PBS. Thereafter, melanin was extracted by 1N NaOH in boiling water bath for 5 minutes. The absorbance of the melanin extract was read at 405 nm in a microplate reader. The inhibitory effect of the sample is calculated based on the decrease of melanin formation.\nT=absorbance due to melanin in the presence of inhibitor"}, "[2]": {"biological_target": "Collagenase Type IV from Clostridium histolyticum", "conditions": "for Collagenase inhibition, % inhibition: at 500 μg/ml"}, "TNF α": {"tested_on": "TNF α", "assay": "TNF α inhibition in LPS-stimulated human whole blood (ELISA)", "format": "cell-based", "conditions": "for TNF α inhibition (IC50 μg/ml): human whole blood, LPS 1 ng/mL", "excerpt": "For TNF α inhibitory study, human whole blood is used. In whole blood assay, monocytes appear to be the main source of TNF-α on lipopolysaccharide (LPS) stimulation. Monocyte and macrophages are a major source of TNF-α in addition to other cell types like eosinophils, mast cells, peripheral lymphocytes and granulocytes. The activation of inflammatory cells is influenced by the intracellular levels of c-AMP which are regulated by the phosphodiesterase isoenzyme. […] After stimulation, the assay employs the quantitative sandwich enzyme immunoassay technique. A monoclonal antibody specific for TNF-α has been pre-coated onto a microplate. TNF-α present in the sample is bound by the immobilized antibody. After washing away any unbound substances, an enzyme-linked polyclonal antibody specific for TNF-α is added. Following a wash to remove any unbound antibody-enzyme reagent, a substrate solution is added to the wells and colour develops in proportion to the amount of TNF-α bound in the initial step. The colour development is stopped and the intensity of the colour is directly proportional to the TNF-α content.\nHeparinized blood from healthy donors was diluted 1:3 in RPMI 1640 culture medium containing 10% FBS. […] 0.1% DMSO was used as vehicle for water insoluble samples. After pre-incubation, the whole blood cells were stimulated by 1 ng/mL LPS for the release of TNF α from the macrophages by incubating for 5 hr at 37° C. in an incubator with 5% COP. The samples were then centrifuged at 3000 g for 3 minutes at 4° C. and the supernatant was assayed for TNF α content by using the TNF α Elisa kit. 200 μL of supernatant from all the tubes was transferred into microtiter plate in respective wells (Pre-coated mouse monoclonal antibody microplate) followed by the addition of 50 μL of assay diluents in all the wells. After incubation for 2 hr at room temperature, the wells were washed thoroughly with wash buffer provided and then 200 μL of conjugate was added to each well. The plate was incubated for 2 hr at room temperature. After washing again, 200 μL of substrate solution was added to each well and incubated for 20 minutes at room temperature. 50 μL of Stop Solution to each well which will cause the colour change in the wells from blue to yellow was added. The optical density was read at 450 nm which is directly proportional to TNF α content and the percentage of inhibition of TNF α content on treatment with sample was calculated with respect to that of the untreated cells.\nT=absorbance due to TNF α in the presence of inhibitor"}, "LTB4": {"tested_on": "LTB4", "assay": "LTB4 inhibition (same procedure as TNF α)", "format": "cell-based, human", "conditions": "result in words", "excerpt": "The above procedure is also followed for determining LTB4 inhibition by Oleanoyl peptide. From the results tabulated in table 1, it is clear that Oleanoyl peptide is a better TNF α and LTB4 inhibitor."}, "Human osteosarcoma cells": {"tested_on": "Human osteosarcoma cells", "assay": "Collagen enhancement by Sirius Red staining", "format": "cell-based", "description": "Collagen enhancement was determined by using Sirius Red stain that binds with a greater specificity to Collagen type I and Collagen type III of the extracellular matrix. The stain bound to the collagen is dissolved and the optical density (OD) is measured spectrophotometrically using a Fluostar optima microtiter plate reader at 544 nm. The OD of the stain bound to collagen is directly proportional to the collagen content in the cells.\nHuman osteosarcoma cells from human bone were used for collagen enhancement studies. The cells were seeded with a seeding density of 10000 cells per well of a 24 well plate. Confluent monolayers of cells were initially treated with varying non cytotoxic concentrations of Oleanoyl peptide and vehicle (control) in the culture medium. For each concentration, 4 replicates were maintained and the analysis was performed twice such that the ‘n’ value is 8. After sample treatment, the cells were incubated in a CO2 incubator for 48 hrs. The cells were then developed by Sirius red staining technique to analyze the collagen enhancement. The cells were washed extensively with PBS. The cells were fixed using Bouin's fluid containing 1.3% picric acid, 35% formaldehyde and glacial acetic acid in 15:5:1 ration by incubating with 1 ml of Bouin's fluid per well for 1 hr at RT. The fixative is then removed by suction with micropipette and the cells were washed under running tap water for 15 minutes. After air drying the culture plate, the cells were stained using 0.1% Sirius red stain in 1.3% picric acid. 1 ml per well Sirius red stain was added and the cells were incubated for 1 hr under mild shaking of 70 RPM at RT in Orbitek Shaker. The stain was then removed by suction and the cells were extensively washed with 0.01N HCl to remove unbound dye. The dye bound to collagen was then dissolved in 0.2 ml of 0.1N NaOH per well for 30 minutes under mild shaking of 70 RPM in Orbitek Shaker at RT. The dye was then transferred to 96 well microplate and the OD was read at 544 nm in Fluostar Optima microplate reader.\nThe percentage enhancement in collagen with respect to the untreated cells considering the OD of untreated cells as optimal under normal conditions is calculated as follows, % enhancement in […]=[(100/C)×T]−100 Where C=absorbance due to collagen in untreated cells\nT=absorbance due to collagen in sample treated cells"}, "[3]": {"assay": "DPPH free radical scavenging assay", "conditions": "result in words", "description": "The DPPH assay is often used to evaluate the ability of antioxidants to scavenge free radicals which are known to be a major factor in biological damages caused by oxidative stress. This assay is known to give reliable information concerning the antioxidant ability of the tested compounds. The assay is based on the color change of the stable free radical DPPH from purple to yellow as the radical is quenched by the antioxidant.\nThe assay mixture tubes containing 1.5 ml of 0.1 mM DPPH methanolic solution and varying concentrations of the sample in a total volume of 3 ml were incubated at 37° C. for 30 minutes in a shaking water bath. The reduction in absorbance which is directly proportional to the radical scavenging is measured spectrophotometrically at 517 nm. […] The percentage of scavenging is calculated as follows, % scavenging=[(C−T)/C]×100 Where C=absorbance in the absence of inhibitor\nT=absorbance in the presence of inhibitor"}, "[4]": {"biological_target": "porcine pancreatic elastase (Sus scrofa, UniProt P00772)", "sequence (P00772 27-266)": "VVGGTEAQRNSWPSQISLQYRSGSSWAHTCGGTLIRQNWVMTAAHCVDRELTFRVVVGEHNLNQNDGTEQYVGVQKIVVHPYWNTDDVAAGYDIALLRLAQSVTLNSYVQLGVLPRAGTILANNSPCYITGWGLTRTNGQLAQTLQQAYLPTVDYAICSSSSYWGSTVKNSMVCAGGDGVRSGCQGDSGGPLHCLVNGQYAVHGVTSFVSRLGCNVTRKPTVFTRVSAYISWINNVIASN", "assay": "EnzChek Elastase Assay, elastase inhibitory potential", "conditions": "for Elastase inhibition (IC50 μg/ml): porcine pancreatic elastase 0.1 U/ml, DQ Elastin, 30 minutes", "text": "The EnzChek kit contains DQelastin, fluorescein conjugated soluble bovine neck ligament elastin. This substrate is efficiently digested by elastase to yield highly fluorescent peptides. […] Elastase used for the assay is purified from porcine pancreas.\nT=absorbance due to elastase activity in the presence of inhibitor"}, "Nitric Oxide (NO)": {"tested_on": "Nitric Oxide (NO)", "assay": "Extracellular nitric oxide from LPS-challenged human neutrophils", "format": "cell-based", "conditions": "test sample 100 μg/ml", "description": "(§1) Experimental observations were made in human neutrophil that were challenged with LPS. […] Rolipram at 100 μg/ml dose level was used as a standard drug to observe the authenticity and reproducibility of the experimental design.\n(§2) The Oleanoyl peptide was also screened for NO and PGE2 expression."}, "Interleukin-6 (IL-6)": {"tested_on": "Interleukin-6 (IL-6)", "assay": "Extracellular IL-6 from LPS-challenged human neutrophils", "format": "cell-based", "conditions": "test sample 100 μg/ml", "description": "as §1"}, "[5]": {"tested_on": "Interleukin-1beta (IL-1β)", "assay": "Extracellular IL-1β from LPS-challenged human neutrophils", "format": "cell-based", "conditions": "test sample 100 μg/ml", "description": "as §1"}, "Prostaglandin E2 (PGE2)": {"tested_on": "Prostaglandin E2 (PGE2)", "assay": "Extracellular PGE2 from LPS-challenged human neutrophils", "format": "cell-based", "conditions": "test sample 100 μg/ml", "description": "as §1, §2"}, "[6]": {"conditions": "at 1.25 ppm, 48 hrs, vs untreated cells"}}, "note": "Where a SMILES comes first, the peptide text is derived from it. The star is where a group is joined. Palmitoyl = CCCCCCCCCCCCCCCC(=O)*", "data": [{"compound": "COc1cc(/C=C/c2ccc(O)c(O)c2)cc(OC)c1", "note": "[3Hydroxypterostilbene]", "values": [{"measurement": "Melanin inhibition IC50 (μg/ml), Individual active", "setting": "[1]", "result": "0.8 ± 0.22", "unit": "µg/mL"}]}, {"compound": "CC1(C)CC[C@]2(C(=O)O)CC[C@]3(C)C(=CC[C@@H]4[C@@]5(C)CC[C@H](O)C(C)(C)[C@@H]5CC[C@]43C)[C@@H]2C1", "note": "[Oleanolic acid]", "values": [{"measurement": "Collagenase inhibition (IC50 μg/ml)", "setting": "[2]; Collagenase Type IV 0.2 U/ml, DQ gelatin, 30 minutes", "result": 129, "unit": "µg/mL"}, {"measurement": "inhibition at 100 µg/mL", "setting": "TNF α; Homo sapiens, at 100 μg/ml", "result": 17, "unit": "%"}, {"measurement": "LTB4 inhibition", "setting": "LTB4", "result": "Nil"}, {"measurement": "enhancement in collagen", "setting": "Human osteosarcoma cells; result in words, concentration not given", "result": "did not show any enhancement"}, {"measurement": "Anti-oxidant activity by DPPH Method", "setting": "[3]", "result": "Nil"}]}, {"compound": "Oc1cc(O)cc(/C=C/c2ccc(O)cc2O)c1", "note": "[Oxyresveratrol]", "values": [{"measurement": "IC50", "setting": "[1]", "result": "8 ± 1.2", "unit": "µg/mL"}]}, {"compound": "CCCCCCCCCCCCCCCC(=O)N[C@@H](CCCCN)C(=O)N[C@H](C(=O)N[C@H](C(=O)N[C@@H](CCCCN)C(=O)N[C@@H](CO)C(=O)O)[C@@H](C)O)[C@@H](C)O", "note": "[Pal-Lys-Thr-Thr-Lys-Ser, palmitoyl-lysyl-threonyl-threonyl-lysyl-serine] (Palmitoyl-KTTKS-OH)", "values": [{"measurement": "Collagenase inhibition, % inhibition", "setting": "[2]", "result": 38, "unit": "%"}, {"measurement": "TNF α inhibition (IC50 μg/ml)", "setting": "TNF α", "result": "Nil"}, {"measurement": "LTB4 inhibition", "setting": "LTB4", "result": "Nil"}, {"measurement": "enhancement in collagen", "setting": "Human osteosarcoma cells; [6]", "result": 11, "unit": "%"}, {"measurement": "inhibition at 500 µg/mL", "setting": "[4]; read-out: Elastase inhibition, % inhibition", "result": 16, "unit": "%"}, {"measurement": "Anti-oxidant activity by DPPH Method", "setting": "[3]", "result": "Nil"}]}, {"compound": "C[C@@H](O)[C@H](NC(=O)[C@@H](NC(=O)[C@@H](N)CCCCN)[C@@H](C)O)C(=O)N[C@@H](CCCCN)C(=O)N[C@@H](CO)C(=O)O", "note": "[Peptide of SEQ ID No. 1, Lysyl-Threonyl-Threonyl-Lysyl-Serine] (H-KTTKS-OH)", "values": [{"measurement": "Collagenase inhibition, % inhibition", "setting": "[2]", "result": 24, "unit": "%"}, {"measurement": "TNF α inhibition (IC50 μg/ml)", "setting": "TNF α", "result": "Nil"}, {"measurement": "LTB4 inhibition", "setting": "LTB4", "result": "Nil"}, {"measurement": "enhancement in collagen", "setting": "Human osteosarcoma cells; [6]", "result": 5, "unit": "%"}, {"measurement": "Elastase inhibition (IC50 μg/ml)", "setting": "[4]", "result": "Nil"}, {"measurement": "Elastase inhibition (IC50 μg/ml)", "setting": "[4]; listed as peptide of SEQ ID NO: 1", "result": "did not show elastase inhibition"}, {"measurement": "Anti-oxidant activity by DPPH Method", "setting": "[3]", "result": "Nil"}]}, {"compound": "COc1cc(/C=C/c2ccc(O)cc2)cc(OC)c1", "note": "[Pterostilbene]", "values": [{"measurement": "IC50", "setting": "[1]", "result": "0.6 ± 0.1", "unit": "µg/mL"}]}, {"compound": "Oc1ccc(C=Cc2cc(O)cc(O)c2)cc1", "note": "[Resveratrol]", "values": [{"measurement": "IC50", "setting": "[1]", "result": "3 ± 0.2", "unit": "µg/mL"}]}, {"compound": "COc1ccc(C2CNC(=O)C2)cc1OC1CCCC1", "note": "(stereo not drawn) [Rolipram, reference compound]", "values": [{"measurement": "Concentration of NO produced (μmol/ml) Mean ± S.E.", "setting": "Nitric Oxide (NO)", "result": "24.83 ± 2.07", "unit": "µmol/mL"}, {"measurement": "% activity NO expression against LPS control", "setting": "Nitric Oxide (NO); ↓ = inhibition", "result": "43.98↓ %"}, {"measurement": "Concentration of IL-6 produced (pg/ml) Mean ± S.E.", "setting": "Interleukin-6 (IL-6)", "result": "72.65 ± 2.07", "unit": "pg/mL"}, {"measurement": "% activity IL-6 expression against LPS control", "setting": "Interleukin-6 (IL-6); ↓ = inhibition", "result": "48.92↓ %"}, {"measurement": "Concentration of IL-1β produced (pg/ml) Mean ± S.E.", "setting": "[5]", "result": "67.52 ± 2.07", "unit": "pg/mL"}, {"measurement": "% activity IL-1β expression against LPS control", "setting": "[5]; ↓ = inhibition", "result": "51.62↓ %"}, {"measurement": "Concentration of PGE2 produced (pg/ml) Mean ± S.E.", "setting": "Prostaglandin E2 (PGE2)", "result": "265.71 ± 10.09", "unit": "pg/mL"}, {"measurement": "% activity PGE2 expression against LPS control", "setting": "Prostaglandin E2 (PGE2); ↓ = inhibition", "result": "65.44↓ %"}]}]}
